Experimental data as given in publication PMC10539439 (Pharmacological Reports, 2023).
“And” between values parts separate entries of the source, which are not always exact repeats. Identical values can stand only once. Like-named read-outs stand apart in the source and are kept apart here.

Assays:
α1-adrenoceptor = test: Competitive radioligand-binding assay, [3H]prazosin; design: species or system rat
Protocol: (§1) 10 mM stock solutions of test compounds were prepared in DMSO. Serial dilutions of compounds were prepared in 96-well microplate in assay buffers using an automated pipetting system epMotion 5070 (Eppendorf, Poland). Each compound was tested in 6 concentrations of 1.0E-05 to 1.0E-10 M (final concentration).
(§2) Affinity towards α1- and α2-adrenoceptors was evaluated using the competitive radioligand-binding assay. Experiments were conducted in the rat cerebral cortex. Radioligand [3H]prazosin (84,2 Ci/mmol, α1-adrenoceptor, PerkinElmer, Poland, NET823001MC) and [3H]clonidine (70.5 Ci/mmol, α2-adrenoceptor, PerkinElmer, Poland, NET613250UC) were used. The membrane preparation and the assay procedure were carried out accordingly as previously published. Radioactivity was counted on the MicroBeta2 scintillation counter (PerkinElmer, Poland). Data were fitted to a one-site curve-fitting equation with Prism 8 (GraphPad Software, USA), and Ki values were estimated from the Cheng–Prusoff equation.

α2-adrenoceptor = biological target: T1, α2-adrenoceptor (Rattus norvegicus, UniProt P22909); test: Competitive radioligand-binding assay, [3H]clonidine; conditions: ADRA2, experiments 1-3, duplicates
T1 sequence (P22909 1-465): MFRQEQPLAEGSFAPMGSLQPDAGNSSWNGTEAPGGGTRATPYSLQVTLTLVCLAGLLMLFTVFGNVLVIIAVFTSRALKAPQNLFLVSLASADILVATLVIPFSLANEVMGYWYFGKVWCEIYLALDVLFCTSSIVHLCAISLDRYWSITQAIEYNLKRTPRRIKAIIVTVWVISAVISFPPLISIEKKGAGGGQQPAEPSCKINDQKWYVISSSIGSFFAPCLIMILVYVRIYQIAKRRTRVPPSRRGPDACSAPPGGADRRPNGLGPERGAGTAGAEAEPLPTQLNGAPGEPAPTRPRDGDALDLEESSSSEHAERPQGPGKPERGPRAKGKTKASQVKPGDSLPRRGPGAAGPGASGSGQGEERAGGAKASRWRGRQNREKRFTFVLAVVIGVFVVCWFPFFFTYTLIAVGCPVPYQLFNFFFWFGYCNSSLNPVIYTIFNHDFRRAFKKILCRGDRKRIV
Protocol: as §1, §2

Structure (SMILES)	Ki (α1-adrenoceptor; ADRA1, experiment 1, 2, 3, read-out: Ki, single experiments)	Ki (α1-adrenoceptor; [3H] prazosin, rat cerebral cortex, mean ± SEM, n = 3, read-out: Ki)	CPM (α2-adrenoceptor; log of molar concentration -5)	CPM (α2-adrenoceptor; log of molar concentration -6)	CPM (α2-adrenoceptor; log of molar concentration -7)	CPM (α2-adrenoceptor; log of molar concentration -8)	CPM (α2-adrenoceptor; log of molar concentration -9)	CPM (α2-adrenoceptor; log of molar concentration -10)
Cc1ccc(N(CC2=NCCN2)c2cccc(O)c2)cc1 [Phentolamine]	14.9 nM and 9.23 nM and 10.1 nM	11.3 ± 1.7 nM	–	–	–	–	–	–
CNC[C@H](O)c1cccc(O)c1 [Phenylephrine]	–	–	141 CPM and 116 CPM and 96 CPM and 109 CPM and 123 CPM and 92 CPM	126 CPM and 136 CPM and 132 CPM and 152 CPM and 190 CPM and 224 CPM	392 CPM and 260 CPM and 300 CPM and 297 CPM and 293 CPM	433 CPM and 441 CPM and 410 CPM and 390 CPM and 339 CPM and 367 CPM	380 CPM and 398 CPM and 394 CPM and 410 CPM and 367 CPM and 391 CPM	502 CPM and 429 CPM and 290 CPM and 400 CPM and 415 CPM and 423 CPM
